Consider 30 molecules from US20220144838A1, “Compounds as Inhibitors of Macrophage Migration Inhibitory Factor” (NANJING IMMUNOPHAGE BIOTECH CO., LTD., priority 2019, published 2022).

The target of this assay is T1, MIF (Homo sapiens, UniProt P14174).
T1 sequence (P14174 2-115 limits assumed): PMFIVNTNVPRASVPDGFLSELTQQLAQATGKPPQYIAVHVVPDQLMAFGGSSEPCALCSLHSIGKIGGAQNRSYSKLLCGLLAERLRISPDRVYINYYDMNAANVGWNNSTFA
Nature of the assay: MIF tautomerase assay using pHPP as substrate. In kind it is biochemical. The settings on record: inhibition of the MIF enzyme in vitro; mean of multiple test results; read-out: Tautomerase Inhibition pIC50 (converted). On the procedure: Tautomerase Assay Using pHPP as Substrate
This assay measured MIF's tautomerase activity in a cell-free system and was based on the determination of initial rates of the MIF-catalyzed conversion of the ketonic into the enolic tautomer of pHPP. This was achieved by spectrophotometric quantification of the complex between borate and the product of the reaction (enolic pHPP). The substrate was prepared by conversion of the enolic pHPP into its ketonic form. To achieve this, 0.5 M pHPP in methanol was diluted 10-fold with 50 mM sodium acetate buffer at pH 6.0, and then the suspension was shaken for 24 h at room temperature in darkness, and finally stored at 4° C. for not more than 1 week, with 5 min sonication being recommended before use.
Assays were performed in small-volume clear-bottom black 96 or 384-well polystyrene plates (Greiner Bio-One). First, 2 μL of the enzyme solution containing 6 nM of MIF in DPBS, 0.025% w/v BSA, and 300 μM CHAPS was dispensed onto sample and negative control wells using Multidrop Combi with metallic tip cassettes (Thermo Fisher Scientific) previously treated with Sigmacote. Then, 2 μL of the same buffer without MIF was dispensed onto positive control wells. The reaction was started by addition of the following to all wells: 2 μL of substrate solution containing 3 mM ketonic pHPP in 200 mM boric acid, 25 mM sodium phosphate, 0.025% w/v BSA, and 300 μM CHAPS at pH 6.0. In order to remove bubbles, the plate was centrifuged in an Allegra 25R centrifuge (Beckman Coulter, Inc., Brea, Calif.) at 1000 rpm for 2 min at room temperature. Then, the plate was read in an EnVision. Final concentrations of enzyme and substrate were 3 nM and 1.5 mM, respectively. Initial rates were calculated for each well as the slope of the absorbance progress curve.
All exemplified compounds (Examples 1-230) were tested in the MIF tautomerase assay or a similar assay described above. The data mentioned below represents a mean pIC50 value of multiple test results. It is understood that the data illustrated below may have reasonable variation depending on the specific conditions and procedures used by the person conducting the testing.

Some results are limits rather than exact numbers.

As to `Oc1ccc(N2CCN(c3cc(-n4ncc5ccccc54)n4ncc(-c5cccnc5)c4n3)CC2)cc1` [Example 14, 4-(4-(7-(1H-indazol-1-yl)-3-(pyridin-3-yl)pyrazolo[1,5-a]pyrimidin-5-yl)piperazin-1-yl)phenol], the IC50 was 1000 to 9770 nM.

`C[C@H]1CN(c2ccc(O)cc2)CCN1c1nc(-n2ncc3ccccc32)c2ncn(CC(=O)O)c2n1` [Example 15, (S)-2-(2-(4-(4-hydroxyphenyl)-2-methylpiperazin-1-yl)-6-(1H-indazol-1-yl)-9H-purin-9-yl)acetic acid]: the IC50 was 1000 to 9770 nM.

As for `O=C(O)Cn1cnc2c(-n3ncc4c(CO)cccc43)nc(N3CCN(c4ccc(O)cc4)CC3)nc21` [Example 16, 2-(6-(4-(hydroxymethyl)-1H-indazol-1-yl)-2-(4-(4-hydroxyphenyl)piperazin-1-yl)-9H-purin-9-yl)acetic acid], the IC50 is 10 to 97.7 nM.

For the molecule `Oc1ccc(N2CCN(c3nc(-n4ncc5ccccc54)c4ncn(Cc5nnn[nH]5)c4n3)CC2)cc1` [Example 17, 4-(4-(9-((1H-tetrazol-5-yl)methyl)-6-(1H-indazol-1-yl)-9H-purin-2-yl)piperazin-1-yl)phenol], the IC50 was 100 to 977 nM.

As to `O=C(O)Cn1cnc2c(-n3nnc4ccc(Cl)cc43)nc(N3CCN(c4ccc(O)cc4)CC3)nc21` [Example 18, 2-(6-(6-chloro-1H-benzo[d][1,2,3]triazol-1-yl)-2-(4-(4-hydroxyphenyl)piperazin-1-yl)-9H-purin-9-yl)acetic acid], the IC50 was 10 to 97.7 nM.

On to `O=C(O)Cn1cnc2c(-n3nnc4cc(Cl)ccc43)nc(N3CCN(c4ccc(O)cc4)CC3)nc21` [Example 19, 2-(6-(5-chloro-1H-benzo[d][1,2,3]triazol-1-yl)-2-(4-(4-hydroxyphenyl)piperazin-1-yl)-9H-purin-9-yl)acetic acid], for which the IC50 was 1000 to 9770 nM.

Turning to `Cc1cccc2c1nnn2-c1nc(N2CCN(c3ccc(O)cc3)CC2)nc2c1ncn2CC(=O)O` [Example 20, 2-(2-(4-(4-hydroxyphenyl)piperazin-1-yl)-6-(4-methyl-1H-benzo[d][1,2,3]triazol-1-yl)-9H-purin-9-yl)acetic acid], the IC50 is 10 to 97.7 nM.

As for `O=C(O)Cn1cnc2c(-n3ncc4ccccc43)nc(N3CCN(c4ccc(O)cn4)CC3)nc21` [Example 21, 2-(2-(4-(5-hydroxypyridin-2-yl)piperazin-1-yl)-6-(1H-indazol-1-yl)-9H-purin-9-yl)acetic acid], the IC50 was 10 to 97.7 nM.

Take `O=C(O)Cn1cnc2nc(N3CCN(c4ccc(O)cn4)CC3)nc(-n3ncc4ccccc43)c21` [Example 22, 2-(2-(4-(5-hydroxypyridin-2-yl)piperazin-1-yl)-6-(1H-indazol-1-yl)-7H-purin-7-yl)acetic acid]: the IC50 is 1000 to 9770 nM.

Consider `OCCCn1cnc2c(-n3ncc4ccccc43)nc(N3CCN(c4ccc(O)cc4)CC3)nc21` [Example 23, 4-(4-(9-(3-hydroxypropyl)-6-(1H-indazol-1-yl)-9H-purin-2-yl)piperazin-1-yl)phenol], for which the IC50 was 100 to 977 nM.

Regarding `O=C(O)Cn1cnc2c(-n3nnc4ccccc43)nc(N3CCN(c4ccc(O)cc4)CC3)nc21` [Example 24, 2-(6-(1H-benzo[d][1,2,3]triazol-1-yl)-2-(4-(4-hydroxyphenyl)piperazin-1-yl)-9H-purin-9-yl)acetic acid], the IC50 is 10 to 97.7 nM.

Turning to `O=C(O)Cn1cnc2c(-c3c[nH]c4ccccc34)nc(N3CCN(c4ccc(O)cc4)CC3)nc21` [Example 25, 2-(2-(4-(4-hydroxyphenyl)piperazin-1-yl)-6-(1H-indol-3-yl)-9H-purin-9-yl)acetic acid], the IC50 is 1000 to 9770 nM.

Take `O=C(O)Cn1cnc2c(N3Cc4ccccc4C3)nc(N3CCN(c4ccc(O)cc4)CC3)nc21` [Example 26, 2-(2-(4-(4-hydroxyphenyl)piperazin-1-yl)-6-(isoindolin-2-yl)-9H-purin-9-yl)acetic acid]: the IC50 is 100 to 977 nM.

On to `O=C(O)Cn1cnc2c(N3Cc4ccccc4C3=O)nc(N3Cc4ccccc4C3=O)nc21` [Example 27, 2-(2,6-bis(1-oxoisoindolin-2-yl)-9H-purin-9-yl)acetic acid], for which the IC50 is above 10000 nM.

As for `Cc1nc2ccccc2n1-c1nc(N2CCN(c3ccc(O)cc3)CC2)nc2c1ncn2CC(=O)O` [Example 28, 2-(2-(4-(4-hydroxyphenyl)piperazin-1-yl)-6-(2-methyl-1H-benzo[d]imidazol-1-yl)-9H-purin-9-yl)acetic acid], the IC50 is 1000 to 9770 nM.

Take `O=C(O)Cn1cnc2c(-n3c(CO)nc4ccccc43)nc(N3CCN(c4ccc(O)cc4)CC3)nc21` [Example 29, 2-(6-(2-(hydroxymethyl)-1H-benzo[d]imidazol-1-yl)-2-(4-(4-hydroxyphenyl)piperazin-1-yl)-9H-purin-9-yl)acetic acid]: the IC50 was above 10000 nM.

`CCC(CO)n1cnc2c(N3CCc4ccccc43)nc(N3CCN(c4ccc(O)cc4)CC3)nc21` (stereo not drawn) [Example 30, 4-(4-(9-(1-hydroxybutan-2-yl)-6-(indolin-1-yl)-9H-purin-2-yl)piperazin-1-yl)phenol]: the IC50 is 1000 to 9770 nM.

As to `O=C(O)Cn1cnc2c(N3CCc4ccccc43)nc(N3CCN(c4ccc(O)cc4)CC3)nc21` [Example 31, 2-(2-(4-(4-hydroxyphenyl)piperazin-1-yl)-6-(indolin-1-yl)-9H-purin-9-yl)acetic acid], the IC50 was 100 to 977 nM.

Regarding `NC(=O)Cn1cnc2c(N3CCc4ccccc43)nc(N3CCN(c4ccc(O)cc4)CC3)nc21` [Example 32, 2-(2-(4-(4-hydroxyphenyl)piperazin-1-yl)-6-(indolin-1-yl)-9H-purin-9-yl)acetamide], the IC50 was 1000 to 9770 nM.

For the molecule `CCOC(=O)c1nn(-c2nc(N3CCN(c4ccc(O)cc4)CC3)nc3c2ncn3CC(=O)O)c2ccccc12` [Example 33, 2-(6-(3-(ethoxycarbonyl)-1H-indazol-1-yl)-2-(4-(4-hydroxyphenyl)piperazin-1-yl)-9H-purin-9-yl)acetic acid], the IC50 is 10 to 97.7 nM.

`O=C(O)Cn1cnc2c(-c3cccc4[nH]ncc34)nc(N3CCN(c4ccc(O)cc4)CC3)nc21` [Example 34, 2-(2-(4-(4-hydroxyphenyl)piperazin-1-yl)-6-(1H-indazol-4-yl)-9H-purin-9-yl)acetic acid]: the IC50 was 1000 to 9770 nM.

Consider `O=C(O)Cn1cnc2c(-c3ccnc4[nH]ccc34)nc(N3CCN(c4ccc(O)cc4)CC3)nc21` [Example 35, 2-(2-(4-(4-hydroxyphenyl)piperazin-1-yl)-6-(1H-pyrrolo[2,3-b]pyridin-4-yl)-9H-purin-9-yl)acetic acid], for which the IC50 is 100 to 977 nM.

In the case of `O=C(O)Cn1cnc2c(-n3nc(-c4cccnc4)c4ccccc43)nc(N3CCN(c4ccc(O)cc4)CC3)nc21` [Example 36, 2-(2-(4-(4-hydroxyphenyl)piperazin-1-yl)-6-(3-(pyridin-3-yl)-1H-indazol-1-yl)-9H-purin-9-yl)acetic acid], the IC50 is 100 to 977 nM.

Turning to `Cc1nc(N2CCN(c3ccc(O)cc3)CC2)nc2c1ncn2-c1cccc(O)c1Cl` [Example 37, 2-chloro-3-(2-(4-(4-hydroxyphenyl)piperazin-1-yl)-6-methyl-9H-purin-9-yl)phenol], the IC50 is 1000 to 9770 nM.

For `Cc1cncc(-n2cnc3c(C)nc(N4CCN(c5ccc(O)cc5)CC4)nc32)c1` [Example 38, 4-(4-(6-methyl-9-(5-methylpyridin-3-yl)-9H-purin-2-yl)piperazin-1-yl)phenol], the IC50 was 1000 to 9770 nM.

`Oc1ccc(N2CCN(c3nc(N4CCc5ccccc54)c4ncn(-c5cccnc5)c4n3)CC2)cc1` [Example 39, 4-(4-(6-(indolin-1-yl)-9-(pyridin-3-yl)-9H-purin-2-yl)piperazin-1-yl)phenol]: the IC50 is 100 to 977 nM.

For the molecule `CCOC(=O)Cn1cnc2c(-n3cnc4ccccc43)nc(N3CCN(c4ccc(O)cc4)CC3)nc21` [Example 40, ethyl 2-(6-(1H-benzo[d]imidazol-1-yl)-2-(4-(4-hydroxyphenyl)piperazin-1-yl)-9H-purin-9-yl)acetate], the IC50 is 1000 to 9770 nM.

On to `O=C(O)Cn1cnc2c(-n3cnc4ccccc43)nc(N3CCN(c4ccc(O)cc4)CC3)nc21` [Example 41, 2-(6-(1H-benzo[d]imidazol-1-yl)-2-(4-(4-hydroxyphenyl)piperazin-1-yl)-9H-purin-9-yl)acetic acid], for which the IC50 is 10 to 97.7 nM.

Regarding `CNC(=O)Cn1cnc2c(-n3cnc4ccccc43)nc(N3CCN(c4ccc(O)cc4)CC3)nc21` [Example 42, 2-(6-(1H-benzo[d]imidazol-1-yl)-2-(4-(4-hydroxyphenyl)piperazin-1-yl)-9H-purin-9-yl)-N-methylacetamide], the IC50 was 1000 to 9770 nM.

Take `Cc1nc(N2CCN(c3ccc(O)cc3)CC2)nc2c1ncn2-c1ccccc1` [Example 43, 4-(4-(6-methyl-9-phenyl-9H-purin-2-yl)piperazin-1-yl)phenol]: the IC50 was 100 to 977 nM.
